Data taken from patent US11793801B2, “Treatment of pain and neurological conditions” (BioCorRx, Inc., priority 2020, dated 2023).
Read-outs that look alike come from different tables or passages of the source.

Legend:
morphine addicted rats = assay: opioid withdrawal signs in morphine addicted rats; type: in vivo
[1] = target: cholinergic muscarinic receptor 3 (Homo sapiens, UniProt P20309); assay: in vitro antagonistic activity, muscarinic 3; type: biochemical
[2] = target: T1, cholinergic muscarinic receptor 5 (Homo sapiens, UniProt P08912); assay: in vitro antagonistic activity, muscarinic 5; type: biochemical
T1 sequence (P08912 1-532): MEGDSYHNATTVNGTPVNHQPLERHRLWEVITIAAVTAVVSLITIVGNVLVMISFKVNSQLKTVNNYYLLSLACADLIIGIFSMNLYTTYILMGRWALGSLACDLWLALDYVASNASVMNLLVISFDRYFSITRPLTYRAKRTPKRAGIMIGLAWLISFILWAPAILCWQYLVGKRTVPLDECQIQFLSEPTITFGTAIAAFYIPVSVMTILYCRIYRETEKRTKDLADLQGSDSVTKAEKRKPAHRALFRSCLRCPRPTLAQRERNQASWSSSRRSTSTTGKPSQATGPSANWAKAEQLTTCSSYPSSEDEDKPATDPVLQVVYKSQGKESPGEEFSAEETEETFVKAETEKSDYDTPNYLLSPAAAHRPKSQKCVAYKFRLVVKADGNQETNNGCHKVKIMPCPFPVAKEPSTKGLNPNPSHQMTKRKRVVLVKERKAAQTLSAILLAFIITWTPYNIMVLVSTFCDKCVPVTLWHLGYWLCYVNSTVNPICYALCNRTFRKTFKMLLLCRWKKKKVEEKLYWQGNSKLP

[3] = target: T2, adrenergic receptor Alpha 2C (Homo sapiens, UniProt P18825); assay: in vitro antagonistic activity, adrenergic Alpha 2C; type: biochemical
T2 sequence (P18825 1-462): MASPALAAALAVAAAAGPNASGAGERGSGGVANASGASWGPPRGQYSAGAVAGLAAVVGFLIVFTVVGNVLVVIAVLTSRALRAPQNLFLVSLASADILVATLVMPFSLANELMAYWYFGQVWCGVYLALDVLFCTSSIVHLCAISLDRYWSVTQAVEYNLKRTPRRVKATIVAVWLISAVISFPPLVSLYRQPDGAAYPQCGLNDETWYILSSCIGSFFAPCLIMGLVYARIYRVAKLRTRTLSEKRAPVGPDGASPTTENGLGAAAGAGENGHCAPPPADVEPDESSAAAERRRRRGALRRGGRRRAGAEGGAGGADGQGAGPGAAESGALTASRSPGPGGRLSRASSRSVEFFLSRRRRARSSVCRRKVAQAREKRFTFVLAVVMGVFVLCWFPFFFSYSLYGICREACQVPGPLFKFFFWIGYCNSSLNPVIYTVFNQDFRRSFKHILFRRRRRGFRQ

Sigma opiate sites = assay: in vitro pharmacology at Sigma sites; type: binding
serotonin receptor 1A = target: T3, serotonin receptor 1A (Homo sapiens, UniProt P08908); assay: in vitro antagonistic activity, serotonin 1A; type: biochemical
T3 sequence (P08908 1-422): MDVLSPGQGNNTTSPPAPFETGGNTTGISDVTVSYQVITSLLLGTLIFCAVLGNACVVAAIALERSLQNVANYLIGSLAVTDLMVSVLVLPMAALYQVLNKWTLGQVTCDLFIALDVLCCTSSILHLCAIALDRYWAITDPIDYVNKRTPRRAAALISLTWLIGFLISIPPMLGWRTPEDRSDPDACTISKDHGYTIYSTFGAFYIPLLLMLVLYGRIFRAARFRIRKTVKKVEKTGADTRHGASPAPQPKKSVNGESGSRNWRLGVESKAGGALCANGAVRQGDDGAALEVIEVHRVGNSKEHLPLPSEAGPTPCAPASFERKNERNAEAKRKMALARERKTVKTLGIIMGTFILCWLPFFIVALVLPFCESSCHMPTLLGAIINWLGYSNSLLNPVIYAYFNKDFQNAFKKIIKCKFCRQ

dopamine D4 receptor = target: T4, dopamine D4 receptor (Homo sapiens, UniProt P21917); assay: in vitro antagonistic activity, dopamine D4; type: biochemical
T4 sequence (P21917 1-419): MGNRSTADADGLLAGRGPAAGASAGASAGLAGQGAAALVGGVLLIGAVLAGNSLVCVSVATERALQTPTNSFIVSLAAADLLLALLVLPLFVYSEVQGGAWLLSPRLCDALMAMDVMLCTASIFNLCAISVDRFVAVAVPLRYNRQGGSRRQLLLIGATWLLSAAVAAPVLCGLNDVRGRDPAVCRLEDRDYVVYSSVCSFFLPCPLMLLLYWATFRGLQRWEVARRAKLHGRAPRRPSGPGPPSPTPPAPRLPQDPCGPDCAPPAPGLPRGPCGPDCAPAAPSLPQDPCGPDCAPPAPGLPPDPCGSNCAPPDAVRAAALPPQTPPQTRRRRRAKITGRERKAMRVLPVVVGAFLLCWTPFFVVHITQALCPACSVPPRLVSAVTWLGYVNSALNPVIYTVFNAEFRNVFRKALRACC

[4] = target: T5, adrenergic receptor Alpha 1B (Homo sapiens, UniProt P35368); assay: in vitro antagonistic activity, adrenergic Alpha 1B; type: biochemical
T5 sequence (P35368 1-520): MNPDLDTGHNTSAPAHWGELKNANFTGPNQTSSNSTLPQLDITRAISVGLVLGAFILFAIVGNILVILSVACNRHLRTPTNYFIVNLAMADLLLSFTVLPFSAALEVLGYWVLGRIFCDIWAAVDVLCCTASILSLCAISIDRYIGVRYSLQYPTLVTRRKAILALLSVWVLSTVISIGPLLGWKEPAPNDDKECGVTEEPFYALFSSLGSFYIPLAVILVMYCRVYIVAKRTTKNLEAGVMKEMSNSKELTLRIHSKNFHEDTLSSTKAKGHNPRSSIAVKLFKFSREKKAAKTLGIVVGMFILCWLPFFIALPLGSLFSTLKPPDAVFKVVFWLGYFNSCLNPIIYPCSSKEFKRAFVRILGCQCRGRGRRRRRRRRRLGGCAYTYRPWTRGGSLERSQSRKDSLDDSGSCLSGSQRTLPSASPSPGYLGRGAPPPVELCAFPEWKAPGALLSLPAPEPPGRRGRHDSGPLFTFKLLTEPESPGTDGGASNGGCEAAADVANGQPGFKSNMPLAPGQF

[5] = target: T6, adrenergic receptor Alpha 2B (Homo sapiens, UniProt P18089); assay: in vitro antagonistic activity, adrenergic Alpha 2B; type: biochemical
T6 sequence (P18089 1-450): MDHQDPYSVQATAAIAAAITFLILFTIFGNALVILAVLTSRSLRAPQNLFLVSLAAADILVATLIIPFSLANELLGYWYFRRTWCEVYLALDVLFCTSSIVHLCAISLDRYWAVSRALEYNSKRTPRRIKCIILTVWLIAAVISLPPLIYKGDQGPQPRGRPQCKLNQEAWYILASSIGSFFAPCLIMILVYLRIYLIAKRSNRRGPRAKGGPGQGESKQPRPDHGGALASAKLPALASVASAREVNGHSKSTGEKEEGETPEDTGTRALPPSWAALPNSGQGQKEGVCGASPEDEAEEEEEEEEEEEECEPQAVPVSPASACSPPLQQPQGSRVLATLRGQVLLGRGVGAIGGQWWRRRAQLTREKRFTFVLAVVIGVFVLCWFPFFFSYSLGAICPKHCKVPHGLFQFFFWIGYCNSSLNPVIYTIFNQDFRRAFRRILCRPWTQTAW

Delta (DOP) receptor = Delta (DOP) receptor (Homo sapiens, UniProt P41143); assay: in vitro pharmacology at Delta (DOP) receptor; type: biochemical
Sequence of Delta (DOP) receptor (P41143 whole entry): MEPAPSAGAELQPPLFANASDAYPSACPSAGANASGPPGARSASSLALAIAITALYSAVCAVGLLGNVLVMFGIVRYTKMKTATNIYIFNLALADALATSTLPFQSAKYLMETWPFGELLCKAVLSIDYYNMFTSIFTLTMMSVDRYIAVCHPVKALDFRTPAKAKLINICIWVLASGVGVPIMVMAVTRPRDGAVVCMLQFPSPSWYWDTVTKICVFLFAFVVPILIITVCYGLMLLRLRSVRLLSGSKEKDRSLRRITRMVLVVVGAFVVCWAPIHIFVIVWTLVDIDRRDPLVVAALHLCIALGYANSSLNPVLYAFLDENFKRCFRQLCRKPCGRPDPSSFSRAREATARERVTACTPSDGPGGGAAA

histamine H1 receptor = histamine H1 receptor (Homo sapiens, UniProt P35367); assay: in vitro antagonistic activity, histamine H1; type: biochemical
Sequence of histamine H1 receptor (P35367 whole entry, species assumed): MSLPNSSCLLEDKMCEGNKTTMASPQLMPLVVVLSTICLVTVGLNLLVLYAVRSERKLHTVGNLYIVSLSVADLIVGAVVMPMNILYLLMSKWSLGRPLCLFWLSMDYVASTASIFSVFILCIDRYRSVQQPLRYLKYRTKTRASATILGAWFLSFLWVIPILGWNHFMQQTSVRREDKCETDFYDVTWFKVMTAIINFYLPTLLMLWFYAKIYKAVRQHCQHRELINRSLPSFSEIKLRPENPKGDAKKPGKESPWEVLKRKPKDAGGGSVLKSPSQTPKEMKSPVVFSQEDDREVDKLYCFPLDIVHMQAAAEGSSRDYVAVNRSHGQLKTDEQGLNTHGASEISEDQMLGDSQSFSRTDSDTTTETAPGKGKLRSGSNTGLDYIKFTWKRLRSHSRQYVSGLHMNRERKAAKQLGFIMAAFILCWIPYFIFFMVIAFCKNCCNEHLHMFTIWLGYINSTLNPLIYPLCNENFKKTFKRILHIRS

[6] = target: T7, cholinergic muscarinic receptor 1 (Homo sapiens, UniProt P11229); assay: in vitro antagonistic activity, muscarinic 1; type: biochemical
T7 sequence (P11229 1-460): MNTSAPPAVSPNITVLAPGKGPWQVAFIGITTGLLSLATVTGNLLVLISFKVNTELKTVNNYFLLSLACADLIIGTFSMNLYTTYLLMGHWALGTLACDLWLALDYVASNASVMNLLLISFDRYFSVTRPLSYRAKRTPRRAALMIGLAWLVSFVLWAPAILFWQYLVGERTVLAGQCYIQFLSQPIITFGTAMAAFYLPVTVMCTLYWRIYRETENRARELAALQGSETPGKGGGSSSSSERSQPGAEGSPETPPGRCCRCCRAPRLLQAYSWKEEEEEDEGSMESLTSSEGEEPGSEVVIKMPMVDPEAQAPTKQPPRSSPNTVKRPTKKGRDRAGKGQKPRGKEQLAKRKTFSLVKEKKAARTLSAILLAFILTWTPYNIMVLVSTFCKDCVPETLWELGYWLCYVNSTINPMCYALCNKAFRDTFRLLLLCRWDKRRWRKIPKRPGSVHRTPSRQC

[7] = target: T8, cholinergic muscarinic receptor 4 (Homo sapiens, UniProt P08173); assay: in vitro antagonistic activity, muscarinic 4; type: biochemical
T8 sequence (P08173 1-479): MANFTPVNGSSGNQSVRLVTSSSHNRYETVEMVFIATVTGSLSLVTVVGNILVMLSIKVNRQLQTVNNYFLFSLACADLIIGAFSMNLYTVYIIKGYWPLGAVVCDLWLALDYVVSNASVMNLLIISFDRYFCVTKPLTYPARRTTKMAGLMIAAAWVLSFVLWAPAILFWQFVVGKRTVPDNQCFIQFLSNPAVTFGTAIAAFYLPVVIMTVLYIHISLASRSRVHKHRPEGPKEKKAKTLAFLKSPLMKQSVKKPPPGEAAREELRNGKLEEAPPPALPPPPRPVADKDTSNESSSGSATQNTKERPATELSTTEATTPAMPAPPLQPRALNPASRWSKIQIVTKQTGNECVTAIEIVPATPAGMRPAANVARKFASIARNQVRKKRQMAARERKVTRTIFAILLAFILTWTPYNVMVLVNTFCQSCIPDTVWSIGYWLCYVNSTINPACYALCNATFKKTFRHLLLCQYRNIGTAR

Sequence of cholinergic muscarinic receptor 3 (P20309 whole entry): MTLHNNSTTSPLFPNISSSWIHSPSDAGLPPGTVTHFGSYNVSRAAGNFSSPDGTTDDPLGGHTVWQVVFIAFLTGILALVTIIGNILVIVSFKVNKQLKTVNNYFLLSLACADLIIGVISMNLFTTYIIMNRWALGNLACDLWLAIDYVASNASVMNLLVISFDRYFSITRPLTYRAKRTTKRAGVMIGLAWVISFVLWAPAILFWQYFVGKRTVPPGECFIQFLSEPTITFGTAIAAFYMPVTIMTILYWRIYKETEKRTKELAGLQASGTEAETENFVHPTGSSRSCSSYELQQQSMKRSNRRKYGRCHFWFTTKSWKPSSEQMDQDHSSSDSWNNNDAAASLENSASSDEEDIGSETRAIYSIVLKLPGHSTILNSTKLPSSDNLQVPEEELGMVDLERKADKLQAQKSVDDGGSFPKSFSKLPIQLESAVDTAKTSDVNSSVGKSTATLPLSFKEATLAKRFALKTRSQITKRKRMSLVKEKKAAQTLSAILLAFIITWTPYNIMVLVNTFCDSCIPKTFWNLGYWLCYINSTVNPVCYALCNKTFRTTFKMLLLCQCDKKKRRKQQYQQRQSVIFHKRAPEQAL

CCC(=O)NC1CC(C)N(CCc2ccccc2)CC1C (centres unmarked) [Compound 1, N-[2,5-dimethyl-1-(2-phenylethyl)piperidin-4-yl]propanamide]
opioid withdrawal signs (morphine addicted rats): few if any opioid withdrawal signs | activity at cholinergic muscarinic receptor 3 [1]: antagonistic activity | activity at cholinergic muscarinic receptor 5 [2]: antagonistic activity | activity at adrenergic receptor Alpha 2C [3]: antagonistic activity | Receptor Sigma: affinity (Sigma opiate sites): High Affinity | Receptor Sigma: affinity (Sigma opiate sites; listed as compound 1): further activity | activity at serotonin receptor 1A (serotonin receptor 1A): antagonistic activity | activity at dopamine D4 receptor (dopamine D4 receptor): antagonistic activity | activity at adrenergic receptor Alpha 1B [4]: antagonistic activity | activity at adrenergic receptor Alpha 2B [5]: antagonistic activity | Receptor Delta (DOP): mode of action (Delta (DOP) receptor): Antagonist | activity at histamine H1 receptor (histamine H1 receptor): antagonistic activity | activity at cholinergic muscarinic receptor 1 [6]: antagonistic activity | activity at cholinergic muscarinic receptor 4 [7]: antagonistic activity

C=CCN1CC[C@]23c4c5ccc(O)c4O[C@H]2C(=O)CC[C@@]3(O)[C@H]1C5 [Naloxone, reference compound]
opioid withdrawal signs (morphine addicted rats): withdrawal effects | Receptor Sigma: affinity (Sigma opiate sites): Weak

O=C1CC[C@@]2(O)[C@H]3Cc4ccc(O)c5c4[C@@]2(CCN3CC2CC2)[C@H]1O5 [Naltrexone, reference compound]
Receptor Sigma: affinity (Sigma opiate sites): Weak
